# Experimental data published in the supplement of paper PMC10307832.
# Assays:
# Assay in all cases: relative viability (nuclei count vs DMSO), 5 days (fraction); higher = more cells survive
# [1] = compound: Cc1cnc(CNC(=O)c2c(=O)c3ccc(N4CCCN(C)CC4)nc3n3c2sc2ccccc23)cn1 [CX-5461] + CC1(C)CCC(c2ccc(Cl)cc2)=C(CN2CCN(c3ccc(C(=O)NS(=O)(=O)c4ccc(N[C@H](CCN5CCOCC5)CSc5ccccc5)c(S(=O)(=O)C(F)(F)F)c4)cc3)CC2)C1 [Navitoclax] (partner 0.5 µM)
# How it was run: (§1)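 One day after seeding in 1536-well plates, lung cancer cell lines were dosed by pin tool. Dosing was either single-drug or a fixed anchor-drug dose plus five library-drug doses (not always all listed) in √10 steps. After 5 days, nuclei were stained in one fix-and-stain step and counted on 4× images, and relative viability is the nuclei count of treated wells over that of vehicle wells, given as the median of duplicate plates.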
# [2] = compound: Cc1cnc(CNC(=O)c2c(=O)c3ccc(N4CCCN(C)CC4)nc3n3c2sc2ccccc23)cn1 [CX-5461] + N=C(N)NC(=N)NCCc1ccccc1 [Phenformin] (partner 250 µM)
# How it was run: as §1
# [3] = compound: O=C(Nc1cc(C(F)(F)F)cc(C(F)(F)F)c1)c1cc(Cl)ccc1O [IMD-0354] + CCNC(=O)c1noc(-c2cc(C(C)C)c(O)cc2O)c1-c1ccc(CN2CCOCC2)cc1 [Luminespib] (partner 0.01 µM)
# How it was run: as §1
# [4] = compound: O=C(Nc1cc(C(F)(F)F)cc(C(F)(F)F)c1)c1cc(Cl)ccc1O [IMD-0354] + Cc1nc(NC(=O)N2CCC[C@H]2C(N)=O)sc1-c1ccnc(C(C)(C)C(F)(F)F)c1 [Alpelisib] (partner 2 µM)
# How it was run: as §1
Cell Line,relative viability ([1]; first compound 0.01 µM),relative viability ([1]; first compound 0.03162 µM),relative viability ([1]; first compound 0.1 µM),relative viability ([1]; first compound 0.3162 µM),relative viability ([1]; first compound 1 µM),relative viability ([2]; first compound 0.01 µM),relative viability ([2]; first compound 0.03162 µM),relative viability ([2]; first compound 0.1 µM),relative viability ([2]; first compound 0.3162 µM),relative viability ([2]; first compound 1 µM),relative viability ([3]; first compound 0.04 µM),relative viability ([3]; first compound 0.1265 µM),relative viability ([3]; first compound 0.4 µM),relative viability ([3]; first compound 1.265 µM),relative viability ([3]; first compound 4 µM),relative viability ([4]; first compound 0.04 µM),relative viability ([4]; first compound 0.1265 µM),relative viability ([4]; first compound 0.4 µM),relative viability ([4]; first compound 1.265 µM),relative viability ([4]; first compound 4 µM)
NCI-H1755,0.979,0.992,1.01,0.997,0.883,0.603,0.637,0.615,0.56,0.493,0.321,0.515,0.312,0.456,0.289,0.964,0.562,0.43,0.57,0.222
NCI-H1792,0.657,0.674,0.696,0.692,0.468,0.387,0.198,0.114,0.401,0.111,0.465,0.411,0.35,0.302,0.258,0.822,0.506,0.874,0.677,0.336
NCI-H1793,0.485,0.306,0.37,0.485,0.443,0.388,0.392,0.433,,0.289,0.149,0.159,0.152,0.143,0.175,0.686,0.64,0.34,0.369,0.226
NCI-H1915,0.799,0.784,0.809,0.743,0.758,0.375,0.364,0.376,0.32,0.31,0.609,0.665,0.296,0.355,0.226,0.926,1.05,0.854,0.612,0.214
NCI-H1944,1.06,1.09,1.01,,1.02,0.228,0.193,0.181,0.159,0.122,0.727,0.818,0.669,0.634,0.17,0.694,0.854,,0.902,0.144
NCI-H1975,1.29,1.1,1.09,1.25,0.871,0.44,0.401,0.377,0.415,0.2,0.24,0.197,0.183,0.153,0.162,0.799,0.679,0.36,0.167,0.204
NCI-H1993,0.946,1,0.887,0.871,0.922,0.478,0.476,0.457,0.452,0.416,0.852,0.701,0.623,0.483,0.619,0.762,0.695,0.581,0.487,0.514
NCI-H2009,1.18,1.19,1.08,1.18,0.765,0.501,0.441,0.24,0.472,0.282,1.09,0.923,0.675,0.148,0.159,1.14,1.03,0.929,0.239,0.127
NCI-H2023,1.01,1.03,,0.908,0.152,0.374,0.335,0.194,0.294,0.0701,1.03,0.799,0.292,0.0846,0.121,0.696,0.577,0.439,0.312,0.122
NCI-H2085,1.21,1.16,1.02,1.16,1.11,0.768,0.691,0.704,0.658,0.587,0.498,0.41,0.409,0.274,0.264,0.899,0.888,0.764,0.492,0.269
NCI-H2087,1.24,1.11,0.997,1.12,0.797,0.411,0.406,0.398,0.316,0.32,0.147,0.183,0.173,0.12,0.127,1.04,0.938,0.329,0.136,0.131
NCI-H2126,0.873,0.863,0.896,0.815,0.804,0.576,0.542,0.513,0.589,0.407,0.866,0.867,0.55,0.27,0.213,0.784,0.722,0.682,0.714,0.263
NCI-H2170,0.627,0.585,0.698,0.532,0.665,0.44,0.418,0.407,0.363,0.322,0.754,0.746,0.491,0.764,0.231,0.752,0.785,0.603,0.835,0.373
NCI-H2228,0.822,0.572,0.513,0.552,0.0937,0.327,0.204,0.184,0.26,0.0912,0.102,0.169,0.109,0.128,0.145,0.686,0.738,0.631,0.263,0.182
NCI-H2347,0.968,0.864,0.858,0.601,0.73,0.546,0.361,0.337,0.338,0.397,0.523,0.331,0.356,0.395,0.267,1.05,1.12,0.772,0.498,0.37
NCI-H2405,0.957,0.92,0.997,0.431,0.743,0.411,0.363,0.415,0.326,0.342,0.752,0.669,0.671,0.358,0.288,0.961,0.835,0.609,0.306,0.163
